Source: patent publication US20220153734A1, “Pyrazolopyridine Compounds For IRE1 Inhibition” (Optikira, LLC, priority 2019, published 2022)
pIC50: −log10 of the molar value.

What was measured:
[1] = target: T1, IRE1α (Homo sapiens, UniProt O75460); experiment: Biochemical assay: inhibition of RNase activity of IRE1α; details: enzyme 0.325 nM, substrate 100 nM, 20 minutes
T1 construct: purchased Signal Chem E31-11G
Summary of the method: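 Recombinant IRE1α (0.325 nM final) pre-incubated 30 min at room temperature with compounds (10-point ½-log series, duplicate, 4% DMSO final). Then 100 nM fluorophore/quencher-labelled RNA substrate added in 50 mM Tris, 0.5 mM MgCl2, 10 mM KCl, 2 mM DTT. Urea stop after 20 min; fluorescence read; IC50 from sigmoidal fit.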

[2] = test system: ARPE-19 cells stably expressing XBP1 (a.a. 1-376); experiment: Cellular XBP1 splicing assay (NanoLuc luciferase, thapsigargin); format: cell-based; details: Homo sapiens, ARPE-19, 4 h, thapsigargin 150 nM
Summary of the method: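 ARPE-19 cells carrying an XBP1(1-376)-NanoLuc splicing reporter were pretreated with compound (10-point ½-log series, 0.117% DMSO) for 30 min, then stressed with 150 nM thapsigargin for 4 h at 37° C. Luminescence was read, and IC50 values came from sigmoidal fits of percent inhibition of control.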

T1 sequence (O75460 468-977 limits assumed): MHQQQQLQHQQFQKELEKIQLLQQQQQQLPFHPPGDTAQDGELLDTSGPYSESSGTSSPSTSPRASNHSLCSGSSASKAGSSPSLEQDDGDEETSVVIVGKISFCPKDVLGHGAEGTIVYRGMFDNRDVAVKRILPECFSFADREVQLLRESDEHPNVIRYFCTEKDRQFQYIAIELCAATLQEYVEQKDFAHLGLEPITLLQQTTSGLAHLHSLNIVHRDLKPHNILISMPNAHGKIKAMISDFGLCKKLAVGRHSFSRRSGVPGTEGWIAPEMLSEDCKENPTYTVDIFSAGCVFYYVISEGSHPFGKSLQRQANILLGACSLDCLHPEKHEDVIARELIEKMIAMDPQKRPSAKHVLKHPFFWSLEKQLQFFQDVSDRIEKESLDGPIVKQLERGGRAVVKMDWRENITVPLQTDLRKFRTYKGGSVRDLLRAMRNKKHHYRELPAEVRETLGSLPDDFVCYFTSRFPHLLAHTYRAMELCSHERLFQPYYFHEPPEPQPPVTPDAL

pIC50 [1] | pIC50 [2] | SMILES
8.92 | 7.89 | COCCN[C@H]1CC[C@H](c2cnc(N)c3c(-c4cc(F)c(NS(=O)(=O)Cc5ccccc5Cl)cc4F)nn(C(C)C)c32)CC1 [Compound A20, N-(4-(4-amino-1-isopropyl-7-((1r,4r)-4-((2-methoxyethyl)amino)cyclohexyl)-1H-pyrazolo[4,3-c]pyridin-3-yl)-2,5-difluorophenyl)-1-(2-chlorophenyl)methanesulfonamide]
8.33 | 5.42 | COCCN[C@H]1CC[C@H](c2cnc(N)c3c(-c4cc(F)c(NS(=O)(=O)c5cc(C#N)ccc5F)cc4F)nn(C(C)C)c32)CC1 [Compound A21, N-(4-(4-amino-1-isopropyl-7-((1r,4r)-4-((2-methoxyethyl)amino)cyclohexyl)-1H-pyrazolo[4,3-c]pyridin-3-yl)-2,5-difluorophenyl)-5-cyano-2-fluorobenzenesulfonamide]
8.74 | 7.82 | CC(C)n1nc(-c2cc(F)c(NS(=O)(=O)Cc3ccccc3F)cc2F)c2c(N)ncc([C@H]3CC[C@H](N(C)C)CC3)c21 [Compound A22, N-(4-(4-amino-7-((1r,4r)-4-(dimethylamino)cyclohexyl)-1-isopropyl-1H-pyrazolo[4,3-c]pyridin-3-yl)-2,5-difluorophenyl)-1-(2-fluorophenyl)methanesulfonamide]
8.01 | 6.80 | COCCN[C@H]1CC[C@H](c2cnc(N)c3c(-c4cc(F)c(NS(=O)(=O)c5c(F)cccc5F)cc4F)nn(C(C)C)c32)CC1 [Compound A23, N-(4-(4-amino-1-isopropyl-7-((1r,4r)-4-((2-methoxyethyl)amino)cyclohexyl)-1H-pyrazolo[4,3-c]pyridin-3-yl)-2,5-difluorophenyl)-2,6-difluorobenzenesulfonamide]
8.27 | 7.09 | COCCN[C@H]1CC[C@H](c2cnc(N)c3c(-c4cc(F)c(NS(=O)(=O)c5ccc(F)cc5F)cc4F)nn(C(C)C)c32)CC1 [Compound A24, N-(4-(4-amino-1-isopropyl-7-((1r,4r)-4-((2-methoxyethyl)amino)cyclohexyl)-1H-pyrazolo[4,3-c]pyridin-3-yl)-2,5-difluorophenyl)-2,4-difluorobenzenesulfonamide]
8.05 | 7.60 | COCCN[C@H]1CC[C@H](c2cnc(N)c3c(-c4cc(F)c(NS(=O)(=O)c5cccc(F)c5F)cc4F)nn(C(C)C)c32)CC1 [Compound A25, N-(4-(4-amino-1-isopropyl-7-((1r,4r)-4-((2-methoxyethyl)amino)cyclohexyl)-1H-pyrazolo[4,3-c]pyridin-3-yl)-2,5-difluorophenyl)-2,3-difluorobenzenesulfonamide]
8.82 | 7.89 | COCCN[C@H]1CC[C@H](c2cnc(N)c3c(-c4cc(F)c(NS(=O)(=O)Cc5ccccc5F)cc4F)nn(C(C)C)c32)CC1 [Compound A26, N-(4-(4-amino-1-isopropyl-7-((1r,4r)-4-((2-methoxyethyl)amino)cyclohexyl)-1H-pyrazolo[4,3-c]pyridin-3-yl)-2,5-difluorophenyl)-1-(2-fluorophenyl)methanesulfonamide]
7.89 | 7.89 | COCCN(CCOC)[C@H]1CC[C@H](c2cnc(N)c3c(-c4cc(F)c(NS(=O)(=O)c5cc(OC)ccc5F)cc4F)nn(C(C)C)c32)CC1 [Compound A27, N-(4-(4-amino-7-((1r,4r)-4-(bis(2-methoxyethyl)amino)cyclohexyl)-1-isopropyl-1H-pyrazolo[4,3-c]pyridin-3-yl)-2,5-difluorophenyl)-2-fluoro-5-methoxybenzenesulfonamide]
8.54 | 8.16 | COCCN[C@H]1CC[C@H](c2cnc(N)c3c(-c4cc(F)c(NS(=O)(=O)c5cc(OC)ccc5F)cc4F)nn(C(C)C)c32)CC1 [Compound A28]
7.49 | 6.30 | COCCN(CCOC)[C@H]1CC[C@H](c2cnc(N)c3c(-c4cc(F)c(NS(=O)(=O)c5cccc(C(F)(F)F)c5)cc4F)nn(C(C)C)c32)CC1 [Compound A29, N-(4-(4-amino-7-((1r,4r)-4-(bis(2-methoxyethyl)amino)cyclohexyl)-1-isopropyl-1H-pyrazolo[4,3-c]pyridin-3-yl)-2,5-difluorophenyl)-3-(trifluoromethyl)benzenesulfonamide]
8.42 | 7.03 | COCCN[C@H]1CC[C@H](c2cnc(N)c3c(-c4cc(F)c(NS(=O)(=O)c5cccc(C(F)(F)F)c5)cc4F)nn(C(C)C)c32)CC1 [Compound A30, N-(4-(4-amino-1-isopropyl-7-((1r,4r)-4-((2-methoxyethyl)amino)cyclohexyl)-1H-pyrazolo[4,3-c]pyridin-3-yl)-2,5-difluorophenyl)-3-(trifluoromethyl)benzenesulfonamide]
8.07 | 7.41 | COCCN[C@H]1CC[C@H](c2cnc(N)c3c(-c4cc(F)c(NS(=O)(=O)c5cc(F)ccc5F)cc4F)nn(C(C)C)c32)CC1 [Compound A31, N-(4-(4-amino-1-isopropyl-7-((1r,4r)-4-((2-methoxyethyl)amino)cyclohexyl)-1H-pyrazolo[4,3-c]pyridin-3-yl)-2,5-difluorophenyl)-2,5-difluorobenzenesulfonamide]
7.77 | 6.96 | COCCN[C@H]1CC[C@H](c2cnc(N)c3c(-c4cc(F)c(NS(=O)(=O)c5ccc(F)cc5)cc4F)nn(C(C)C)c32)CC1 [Compound A32, N-(4-(4-amino-1-isopropyl-7-((1r,4r)-4-((2-methoxyethyl)amino)cyclohexyl)-1H-pyrazolo[4,3-c]pyridin-3-yl)-2,5-difluorophenyl)-4-fluorobenzenesulfonamide]
7.22 | 7.26 | COCCN(CCOC)[C@H]1CC[C@H](c2cnc(N)c3c(-c4cc(F)c(NS(=O)(=O)c5ccccc5F)cc4F)nn(C(C)C)c32)CC1 [Compound A35, N-(4-(4-amino-7-((1r,4r)-4-(bis(2-methoxyethyl)amino)cyclohexyl)-1-isopropyl-1H-pyrazolo[4,3-c]pyridin-3-yl)-2,5-difluorophenyl)-2-fluorobenzenesulfonamide]
7.89 | 7.74 | COCCN(C)[C@H]1CC[C@H](c2cnc(N)c3c(-c4cc(F)c(NS(=O)(=O)c5ccccc5F)cc4F)nn(C(C)C)c32)CC1 [Compound A36, N-(4-(4-amino-1-isopropyl-7-((1r,4r)-4-((2-methoxyethyl)(methyl)amino)cyclohexyl)-1H-pyrazolo[4,3-c]pyridin-3-yl)-2,5-difluorophenyl)-2-fluorobenzenesulfonamide]
7.92 | 7.70 | COCCN[C@H]1CC[C@H](c2cnc(N)c3c(-c4cc(F)c(NS(=O)(=O)c5ccccc5F)cc4F)nn(C(C)C)c32)CC1 [Compound A37, N-(4-(4-amino-1-isopropyl-7-((1r,4r)-4-((2-methoxyethyl)amino)cyclohexyl)-1H-pyrazolo[4,3-c]pyridin-3-yl)-2,5-difluorophenyl)-2-fluorobenzenesulfonamide]
7.92 | 7.89 | CC(C)n1nc(-c2cc(F)c(NS(=O)(=O)c3ccccc3F)cc2F)c2c(N)ncc([C@H]3CC[C@H](N(C)C4COC4)CC3)c21 [Compound A38]
9.52 | 8.77 | CC(C)n1nc(-c2ccc(NS(=O)(=O)Cc3ccccc3Cl)c(F)c2)c2c(N)ncc([C@H]3CC[C@H](NC4COC4)CC3)c21 [Compound A39, N-(4-(4-amino-1-isopropyl-7-((1r,4r)-4-(oxetan-3-ylamino)cyclohexyl)-1H-pyrazolo[4,3-c]pyridin-3-yl)-2-fluorophenyl)-1-(2-chlorophenyl)methanesulfonamide]
8.25 | 7.57 | CC(C)n1nc(-c2cc(F)c(NS(=O)(=O)c3ccccc3F)cc2F)c2c(N)ncc([C@H]3CC[C@H](N(C)C)CC3)c21 [Compound A40, N-(4-(4-amino-7-((1r,4r)-4-(dimethylamino)cyclohexyl)-1-isopropyl-1H-pyrazolo[4,3-c]pyridin-3-yl)-2,5-difluorophenyl)-2-fluorobenzenesulfonamide]
9.05 | 8.05 | Nc1ncc([C@H]2CC[C@H](NC3COC3)CC2)c2c1c(-c1ccc(NS(=O)(=O)Cc3ccccc3F)c(F)c1)nn2C1CC1 [Compound A54, N-(4-(4-amino-1-cyclopropyl-7-((1r,4r)-4-(oxetan-3-ylamino)cyclohexyl)-1H-pyrazolo[4,3-c]pyridin-3-yl)-2-fluorophenyl)-1-(2-fluorophenyl)methanesulfonamide]
9.15 | 8.14 | Nc1ncc([C@H]2CC[C@H](NC3COC3)CC2)c2c1c(-c1ccc(NS(=O)(=O)Cc3ccccc3Cl)c(F)c1)nn2C1CC1 [Compound A55, N-(4-(4-amino-1-cyclopropyl-7-((1r,4r)-4-(oxetan-3-ylamino)cyclohexyl)-1H-pyrazolo[4,3-c]pyridin-3-yl)-2-fluorophenyl)-1-(2-chlorophenyl)methanesulfonamide]
8.46 | 7.82 | Nc1ncc([C@H]2CC[C@H](NC3COC3)CC2)c2c1c(-c1ccc(NS(=O)(=O)c3ccccc3Cl)c(F)c1)nn2C1CC1 [Compound A56, N-(4-(4-amino-1-cyclopropyl-7-((1r,4r)-4-(oxetan-3-ylamino)cyclohexyl)-1H-pyrazolo[4,3-c]pyridin-3-yl)-2-fluorophenyl)-2-chlorobenzenesulfonamide]
9.22 | 8.31 | COCC(C)N[C@H]1CC[C@H](c2cnc(N)c3c(-c4ccc(NS(=O)(=O)Cc5ccccc5Cl)c(F)c4)nn(C(C)C)c32)CC1 (stereo partly shown) [Compound A58, N-(4-(4-amino-1-isopropyl-7-((1r,4r)-4-((1-methoxypropan-2-yl)amino)cyclohexyl)-1H-pyrazolo[4,3-c]pyridin-3-yl)-2-fluorophenyl)-1-(2-chlorophenyl)methanesulfonamide]
